In patent US12398155B2, “Thienopyridinone compounds” (Janssen Pharmaceutica NV, priority 2019, dated 2025):

Tests used:
[1] = biological target: T1, human FGFR3 wild type enzyme (cytoplasmic domain) (Homo sapiens, UniProt P22607); assay: FGFR3 wild type mobility shift assay (enzymatic assay); type: biochemical; details: 75 μM ATP, 50 minutes at 30° C.; read-out: FGFR3 wild type Caliper
T1 construct: human FGFR3 wild type enzyme (cytoplasmic domain, from Cama Biosciences); purchased Cama Biosciences (so in the source)
Experimental: FGFR3 Wild Type Mobility Shift Assay (Enzymatic Assay)
(§1) In a final reaction volume of 25 μL, 0.04 ng/μL human FGFR3 wild type enzyme (cytoplasmic domain, from Cama Biosciences) was incubated with 75 μM ATP, 1 μM FL-peptide 30 substrate and 250 nL of testing compound (1% DMSO final) in assay buffer (100 mM HEPES pH 7.4, 10 mM MgCl2, 0.003% Brij35, 1 mM DTT). After incubation for 50 minutes at 30° C. the reaction was stopped with 10 μL of 0.5M EDTA pH 8.0, and then 25 μL of reaction mixture was transferred to reading plate and measured on Caliper EZ reader II. The substrate-product conversion rate was used as raw data for normalization and concentration-response curve (10 dose points with 4× serial dilution, starting with 10 μM) was plotted using Prism to calculate IC50 (M), pIC50 (−log IC50) and HillSlope value.

[2] = biological target: T2, human FGFR3 V555L enzyme (cytoplasmic domain carrying V555L mutation) (Homo sapiens, UniProt P22607, V555L); assay: FGFR3 V555L mobility shift assay (enzymatic assay); type: biochemical; details: 40 μM ATP, 50 minutes at 30° C.; read-out: FGFR3 V555L Caliper
T2 construct: cytoplasmic domain carrying V555L mutation, from Cama Biosciences; purchased Cama Biosciences (so in the source)
Experimental: FGFR3 V555L Mobility Shift Assay (Enzymatic Assay)
as §1, with “V555L” for “wild type”, “domain carrying V555L mutation,” for “domain,”, “40” for “75”

[3] = test system: NIH/3T3 cells transfected with control vector; assay: NIH/3T3 mock cell proliferation assay (counter assay, general toxicity); type: cell-based; details: Mus musculus, NIH3T3; 72-hr incubation, CellTiter Glo; read-out: NIH/3T3 MOCK CTG
Experimental: NIH/3T3 Mock Cell Proliferation Assay
(§2) In day 1, 90 μL of cell suspension (NIH/3T3 cells transfected with the same control vector as in the above two proliferation assays) (total 30,000 cells per well in growth medium (DMEM containing 1% Glutamax, 10% FBS and 1% Pen/Strep)) was seeded in a 96-well plate and then incubated overnight at 37° C. and 5% CO2. In day 2, 10 μL of growth medium containing 10-fold stock solution of testing compound was added into cell cultures (9 dose points with 3× serial dilution, starting with 30 μM, 0.3% DMSO final). After 72-hr incubation at 37° C. and 5% CO2, in day 5 a volume of 50 μL CellTiter Glo (CTG) reagent was added into cell-containing 96-well plate and the plate was incubated at room temperature for 10 minutes before RLUs (relative light unit) were measured on a microplate reader with luminescence detection module. The RLU value was normalized to survival % and concentration-response curve was plotted using Prism to calculate IC50 (M), pIC50 (−log IC50) and HillSlope value.

[4] = biological target: T3, NIH/3T3 cells overexpressing FGFR3 WT-TACC3 fusion protein (Homo sapiens, UniProt P22607); assay: NIH/3T3 FGFR3 WT-TACC3 cell proliferation assay; type: cell-based; details: 72-hr incubation, CellTiter Glo; read-out: NIH/3T3 FGFR3 WT-TACC3 CTG
T3 construct: NIH/3T3 FGFR3 WT-TACC3 CTG; other: 72-hr incubation, CellTiter Glo; fused on or other part: C-terminal part of TACC3 (coiled-coil) fused behind the FGFR3 kinase domain; Q9Y6A5 (Transforming acidic coiled-coil-containing protein 3)
Experimental: NIH/3T3 FGFR3 WT-TACC3 Cell Proliferation Assay
as §2, with “cells overexpressing FGFR3 WT-TACC3 fusion protein)” for “cells transfected with the same control vector as in the above two proliferation assays)”, “with 4×” for “with 3×”, “with 10” for “with 30”, “μM, 0.1%” for “μM, 0.3%”

[5] = test system: NIH/3T3 cells overexpressing FGFR3 V555M-TACC3 fusion protein; assay: NIH/3T3 FGFR3 V555M-TACC3 cellular phospho-ERK assay (in vitro PD assay); type: cell-based; details: Mus musculus, NIH3T3; 1-hr incubation, AlphaLISA p-ERK1/2; read-out: NIH/3T3 FGFR3 V555M-TACC3 pERK
Experimental: NIH/3T3 FGFR3 V555M-TACC3 Cellular Phospho-ERK Assay (In Vitro PD Assay)
50 μL of cell suspension (NIH/3T3 cells overexpressing FGFR3 V555M-TACC3 fusion protein) (total 10,000 cells per well in growth medium (DMEM containing 1% Glutamax, 10% FBS and 1% Pen/Strep)) was seeded in a 384-well plate. After overnight incubation at 37° C. and 5% CO2, 5.5 μL of growth medium containing 10× testing compound was added into cell cultures (10 dose points with 4× serial dilution, starting with 10 μM, 0.1% DMSO final). After 1-hr incubation at 37° C. and 5% CO2, the medium was depleted and AlphaLISA SureFire Ultra p-ERKI1/2 (Thr202/Tyr204) Assay Kit (from PerkinElmer) was applied for phospho-ERK level detection according to the kit instructions. The RFUs (relative fluorescence units were measured on EnVision microplate reader (ex. 680 nm, em. 615 nm) and concentration-response curve was plotted using Prism to calculate IC50 (M), pIC50 (−log IC50) and HillSlope value.

T1 sequence (P22607 397-806 limits assumed): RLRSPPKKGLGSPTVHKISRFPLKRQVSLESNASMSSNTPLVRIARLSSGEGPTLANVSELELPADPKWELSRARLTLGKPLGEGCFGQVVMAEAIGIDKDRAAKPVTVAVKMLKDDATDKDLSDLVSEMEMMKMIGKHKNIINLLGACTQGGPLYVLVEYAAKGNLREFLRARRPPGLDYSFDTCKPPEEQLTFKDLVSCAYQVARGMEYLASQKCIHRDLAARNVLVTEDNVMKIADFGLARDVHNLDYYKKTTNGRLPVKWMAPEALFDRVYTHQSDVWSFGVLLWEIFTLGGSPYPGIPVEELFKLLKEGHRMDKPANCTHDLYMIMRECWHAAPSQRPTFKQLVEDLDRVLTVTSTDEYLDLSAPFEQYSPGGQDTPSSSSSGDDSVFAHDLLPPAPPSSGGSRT
T3 sequence (P22607 whole entry, change not shown, the tested form may be a part): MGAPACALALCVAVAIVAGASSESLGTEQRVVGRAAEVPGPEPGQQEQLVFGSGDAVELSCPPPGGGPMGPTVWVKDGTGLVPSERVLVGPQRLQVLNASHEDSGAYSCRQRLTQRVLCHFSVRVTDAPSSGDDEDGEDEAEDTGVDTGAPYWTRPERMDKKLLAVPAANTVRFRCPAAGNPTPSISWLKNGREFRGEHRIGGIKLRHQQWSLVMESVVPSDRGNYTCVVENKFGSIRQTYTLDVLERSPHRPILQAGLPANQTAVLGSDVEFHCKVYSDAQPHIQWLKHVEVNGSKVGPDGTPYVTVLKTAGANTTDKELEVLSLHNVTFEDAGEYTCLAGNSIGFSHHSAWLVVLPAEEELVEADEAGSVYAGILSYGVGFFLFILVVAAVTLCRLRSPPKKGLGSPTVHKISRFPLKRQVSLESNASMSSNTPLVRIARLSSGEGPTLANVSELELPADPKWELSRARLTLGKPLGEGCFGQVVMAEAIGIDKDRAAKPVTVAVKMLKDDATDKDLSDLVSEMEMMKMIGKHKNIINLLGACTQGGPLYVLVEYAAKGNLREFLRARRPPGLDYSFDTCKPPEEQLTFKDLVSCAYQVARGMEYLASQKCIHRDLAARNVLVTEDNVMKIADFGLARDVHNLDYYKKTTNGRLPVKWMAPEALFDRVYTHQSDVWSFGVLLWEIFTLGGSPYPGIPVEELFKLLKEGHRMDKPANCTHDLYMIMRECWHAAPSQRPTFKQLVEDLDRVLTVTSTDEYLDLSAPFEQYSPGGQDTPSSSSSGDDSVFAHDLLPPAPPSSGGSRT
T2 sequence (P22607 397-806 V555L limits assumed): as the sequence (P22607 397-806 limits assumed) above, with V159L counted along it

C[C@H](Nc1c(-c2nc3cnc(N4CCOCC4)cc3[nH]2)c(=O)[nH]c2ccsc12)c1ncccn1 [Compound 2, (S)-6-(6-Morpholino-1H-imidazo[4,5-c]pyridin-2-yl)-7-((1-(pyrimidin-2-yl)ethyl)amino)thieno[3,2-b]pyridin-5(4H)-one]
IC50 [1]: 0.31 nM
IC50 [2]: 0.32 nM
IC50 [3]: 891 nM
GI50 [4]: 0.85 nM
IC50 [5]: 1.6 nM
